The test system of one data set is QT interval. The note with it: in vivo; cited from earlier work.
Data set [1] can be described thus: Plasma concentrations in TQT study (LC-MS/MS, non-compartmental PK). Format: in vivo, human. The note with it: human, plasma, oral; 400 mg single dose; read-out: Geometric Mean Cmax. The procedure:
PK analyses were performed using non-compartmental methods to obtain estimates of the following parameters, where possible: […] Day 1: Cmax, Tmax, AUClast, and AUC0-24; Day 5: Cmax, Tmax, Cmin, AUClast, AUC0-tau, Cavg, FI, and AR. For moxifloxacin: Cmax, Tmax, AUClast, and AUC0-24. […] PK blood sampling for Day 1 was completed prior to dosing on Day 2.

For data set [2], the system named is cardiac repolarization in healthy volunteers. Put plainly: Thorough QT/QTc (TQT) study (NCT04795479), cardiodynamic Holter ECG. The source says: These studies included a randomized, partial double-blind, placebo- and positive-controlled, multiple-dose, 4-way crossover, thorough QT/QTc (TQT) study to investigate the effect of relacorilant on cardiac repolarization. These studies measured placebo-corrected change-from-baseline QTcF (ΔΔQTcF); change-from-baseline of QTcF, HR, and PR and QRS intervals (ΔQTcF, ΔHR, ΔPR, and ΔQRS); placebo-corrected change-from-baseline of HR, and PR and QRS intervals (ΔΔHR, ΔΔPR, and ΔΔQRS); categorical outliers for QTcF, HR, and PR and QRS intervals; the frequency of treatment-emergent changes of T-wave morphology and presence of U-waves; PK parameters of relacorilant and its metabolites (CORT125337, CORT125336, and CORT125295) and moxifloxacin; safety profiles, including AEs/SAEs, physical examination, clinical chemistry, hematology, urinalysis, ECG, and vital signs.
A phase 1, randomized, partial double-blind, crossover thorough QT study (NCT04795479) to assess the effect of multiple doses of relacorilant on cardiac repolarization in healthy volunteers. Participants were randomized to dosing sequences to receive relacorilant at therapeutic (400 mg QD, n=25) or supra-therapeutic (800 mg QD, n=28) doses, or placebo (n=29) for 5 days. Moxifloxacin (400 mg single dose, n=28) was used as a positive control.
Each subject received 4 treatments in a randomized sequence during the study period. Each dosing consisted of 8 capsules (except for moxifloxacin on Day 5), including: • Treatment T: Multiple oral doses of 400 mg relacorilant (4 capsules)+placebo for relacorilant (4 capsules) once daily for 5 days; • Treatment ST: Multiple oral doses of 800 mg relacorilant (8 capsules) once daily for 5 days; • Treatment P: Multiple oral doses of placebo for relacorilant (8 capsules) once daily for 5 days; • Treatment M: Multiple oral doses of placebo for relacorilant (8 capsules) once daily for 4 days and a final single oral dose of 400 mg moxifloxacin (one tablet) on Day 5.
In a portion of present study conducted in healthy subjects, a single dose of moxifloxacin (400 mg; Treatment M) on the last day of its respective treatment period was included as a positive control to determine the sensitivity of the study to detect small QTc changes. Relacorilant doses included both a therapeutic dose level (400 mg; Treatment T) and a supra-therapeutic dose level (800 mg; Treatment ST). The study was blinded to subjects, investigator, study staff, and sponsor with respect to relacorilant (Treatments T and ST) and placebo for relacorilant (Treatment P); it was open-labeled for moxifloxacin (Treatment M). Enrolled subjects were randomized to one of twelve (12) dosing sequences to receive 4 different treatments according to the assigned dosing sequence as shown below:
In each period, subjects were admitted to the clinical site in the morning of Day-1 and stayed in the site until the morning of Day 6. In the study periods when subjects were randomized to Treatment T, ST, or P, the applicable study product (400 mg or 800 mg relacorilant or placebo for relacorilant) were taken once daily in the morning for 5 consecutive days. During the dosing period of positive control (Treatment M), placebo for relacorilant were administered on Days 1 to 4 to align with the dosing schedule for the other three treatments and moxifloxacin were administered in an open-labeled manner as a single dose in the morning of Day 5. Therefore, the treatment on Days 1 to 4 were double-blinded; it was not known before the morning on Day 5 whether or not a subject was allocated to receive moxifloxacin. Each dosing period (from Periods 2 to 4) was separated from the previous period by a washout period of at least 10 days from Day 6 of the previous period to Day 1 (first dose) of the subsequent period to prevent a carryover effect. The final visit was on Day 6 of Period 4. A safety phone follow-up was scheduled at 7 days (±2 days) post the final visit/early termination (ET) visit.

SMILES strings stand for the structures. Starred links: 1 amine or outer side, 2 acyl side, 3 side chain; linkers in the order of their positions; H or OH if unused. Non-standard residues stand in square brackets, D forms with d. Residues, ends and D or L forms follow the SMILES beside them. Groups on a side chain read outwards from the residue. *: point of attachment. Ethylenediamine = C(CN[*:2])N[*:1]; Hyp = O=C(O)[C@@H]1C[C@@H](O)CN1; Phg = N[C@H](C(=O)O)c1ccccc1; CO = O=C([*:1])[*:2]; Bn = c1ccc(C*)cc1

For `N#Cc1ccc([C@H]2CCc3cncn32)c(F)c1` [osilodrostat], the “effect on QT interval (literature)” value with QT interval was “associated with QT interval prolongation”.

Turning to `CC(=O)N1CCN(c2ccc(OC[C@@H]3CO[C@@](Cn4ccnc4)(c4ccc(Cl)cc4Cl)O3)cc2)CC1` [levoketoconazole], in the data set with QT interval, the “effect on QT interval (literature)” value was “associated with QT interval prolongation”.

In the case of `NCCCC[C@@H]1NC(=O)[C@@H](Cc2c[nH]c3ccccc23)NC(=O)[C@H](c2ccccc2)NC(=O)[C@@H]2C[C@@H](OC(=O)NCCN)CN2C(=O)[C@H](Cc2ccccc2)NC(=O)[C@H](Cc2ccc(OCc3ccccc3)cc2)NC1=O` [pasoreotide] (cyclo([Hyp]([CO-Ethylenediamine])[Phg][dW]KY(Bn)F)), in the data set on QT interval, the “effect on QT interval (literature)” value is recorded as “associated with QT interval prolongation”.

Turning to `COc1c(N2C[C@@H]3CCCN[C@@H]3C2)c(F)cc2c(=O)c(C(=O)O)cn(C3CC3)c12` [moxifloxacin, 1-cyclopropyl-7-[(S,S)-2,8-diazabicyclo[4.3.0]non-8-yl]-6-fluoro-8-methoxy-1,4-dihydro-4-oxo-3 quinoline carboxylic acid, reference compound], the Cmax in data set [1] came to 1870 ng/mL. Moreover, the “effect on QT interval (literature)” value with QT interval is reported as “prolong the QT interval of the electrocardiogram in some patients”. For the same compound, in data set [2] (400 mg on day 5, 1.5 hours post-dose), the “LS mean (90% CI) ΔΔQTcF, peak value” is given as 10.7 (7.3, 14.1) msec. In data set [2] (400 mg single dose), the “QT effect of positive control” value was “expected QT prolongation”. Moreover, in data set [2] (400 mg single dose on day 5, 1 hour post-dose), the “LS mean (90% CI) ΔQTcF” value is reported as 5.7 (3.3, 8.2) msec. In data set [2] (400 mg single dose on day 5, 16 hours post-dose), the “LS mean (90% CI) ΔQTcF, maximum observed value” is given as 9.7 (7.2, 12.2) msec. In data set [2] (400 mg single dose, PK/QTc population), the “ΔΔQTcF Estimate (msec) (90% CI), predicted at geometric mean Cmax” value is given as 8.90 (5.96, 11.85)^2 msec. Further, in data set [2] (400 mg, at 4 of the 12 post-dose time points), the “lower bound of the 90% CI around the LS mean ΔΔQTcF” value is recorded as “exceeded 5 msec”.

Usually Cmax stands for the highest concentration seen after dosing.

The record behind these values is patent US20240197716A1, “TREATMENTS FOR CUSHING'S SYNDROME THAT DO NOT SIGNIFICANTLY AFFECT CARDIAC RHYTHMS” (Corcept Therapeutics Incorporated, priority 2022, published 2024).
